For one data set, the system named is HCT 116. Put plainly: MTT antiproliferative assay, HCT 116. It counts as cell-based. The conditions noted are these: Homo sapiens, three different experiments, read-out: In Vitro Cytotoxicity IC50. As for the experimental part: (§1) The antiproliferative activity of P1–P4 was evaluated by the MTT standard assay and sunitinib (a well-known FDA-approved multi-kinase inhibitor) as a reference against HCT 116, HepG2, and MCF-7 cell lines, and WI38 normal cell line. […] The antiproliferative activity of P1–P4 was assessed by using an MTT standard assay and sunitinib drug towards HCT 116, HepG2, MCF-7 cells, and WI38 normal cell line using the previously described methodology.
(Tetrazolium dyes change colour on reduction, which living cells bring about.)

The subject of a further data set is HepG2. The data set is described as follows: MTT antiproliferative assay, HepG2. It counts as cell-based. The conditions noted are these: Homo sapiens, three different experiments, read-out: In Vitro Cytotoxicity IC50. As to the method:
as §1

For a further data set, the system named is MCF-7. Put plainly: MTT antiproliferative assay, MCF-7. It counts as cell-based. Particulars: Homo sapiens, MCF7, three different experiments, read-out: In Vitro Cytotoxicity IC50. As to the method:
as §1

Data set [1] can be described thus: MTT cytotoxicity assay, WI38 normal cell line. It counts as cell-based. The conditions noted are these: human, WI38 normal cells; WI38 normal cell line; MTT; three different experiments; read-out: In Vitro Cytotoxicity IC50. As for the experimental part: as §1
The subject of data set [2] is HCT 116, HepG2, and MCF-7 cell lines. Put plainly: MTT antiproliferative assay, summary over the tested cell lines. The conditions noted are these: across the tested cancer cell lines. It counts as cell-based. As for the experimental part:
as §1

The test system of the next data set is WI38 normal cell line. Put plainly: MTT cytotoxicity assay, WI38 normal cell line. It counts as cell-based. Particulars: cancer cell lines vs WI38 normal cell line; formula not given. As for the experimental part: as §1

Here are results for five compounds from article PMC11547452, “Synthesis of New Pyrazolo[3,4-d]pyrimidine Derivatives: NMR Spectroscopic Characterization, X-Ray, Hirshfeld Surface Analysis, DFT, Molecular Docking, and Antiproliferative Activity Investigations” (Molecules, 2024).

As to `Cc1nn(-c2ccccc2)c2nc[nH]c(=O)c12` [Compound P1, 3-methyl-1-phenyl-1,5-dihydro-4H-pyrazolo[3,4-d]pyrimidin-4-one], the melting point (commonly the temperature, or range, at which the solid turns liquid) is 153 to 155 °C. The IC50 – broadly, the point on the concentration scale where inhibition reaches its midpoint – in the data set with HCT 116 stood at 28.9 ± 2.1 µM. For the same compound, the half-maximal inhibitory concentration (IC50) in the data set with HepG2 came to 22.7 ± 1.7 µM. Also, the IC50 with MCF-7 was 36.3 ± 2.6 µM. In data set [1], the IC50 was 85.7 ± 4.7 µM. The same compound returned an IC50 in data set [2] of 22.7 to 40.8 µM.

In turn, `Cc1nn(-c2ccccc2)c2ncn(C)c(=O)c12` [Compound P2, 3,5-Dimethyl-1-phenyl-1,5-dihydro-4H-pyrazolo[3,4-d]pyrimidin-4-one] came in with a melting point of 143 to 145 °C. In the data set with HCT 116, the IC50 is 38.7 ± 2.3 µM. For the same compound, in the data set on HepG2, the IC50 is 31.9 ± 2.1 µM. Moreover, the IC50 with MCF-7 was found to be 40.8 ± 2.4 µM. Further, the half-inhibitory concentration (IC50) in data set [1] is over 100 µM. Moreover, the IC50 in data set [2] was in the range of 22.7 to 40.8 µM.

In turn, `C#CCn1cnc2c(c(C)nn2-c2ccccc2)c1=O` [Compound P3, 3-Methyl-1-phenyl-5-(prop-2-yn-1-yl)-1,5-dihydro-4H-pyrazolo[3,4-d]pyrimidin-4-one] showed a melting point of 155 to 157 °C. For the same compound, the IC50 in the data set on HCT 116 amounted to 89.9 ± 4.5 µM. Further, the IC50 with HepG2 was 88.6 ± 4.7 µM. Further, the IC50 in the data set on MCF-7 was found to be 85.2 ± 4.4 µM. Further, the IC50 in data set [1] stood at 52.5 ± 3.1 µM. For the same compound, the “Selectivity Index” value in the data set with WI38 normal cell line is recorded as 1.67. The IC50 in data set [2] was over 67 µM.

In the case of `Cc1nn(-c2ccccc2)c2ncn(CC(=O)c3ccccc3)c(=O)c12` [Compound P4, 3-Methyl-5-(2-oxo-2-phenylethyl)-1-phenyl-1,5-dihydro-4H-pyrazolo[3,4-d]pyrimidin-4-one], the IC50 in the data set with HCT 116 was 92.5 ± 4.9 µM; with HepG2, 66.8 ± 3.8 µM; with MCF-7 it was over 100 µM; in data set [1] it was 44 ± 2.6 µM; in data set [2], over 67 µM.

As to `CCN(CC)CCNC(=O)c1c(C)[nH]c(/C=C2\C(=O)Nc3ccc(F)cc32)c1C` [Sunitinib, sunitinib, reference compound], the IC50 in data set [1] turned out to be 55.6 ± 3.3 µM. Further, the “Selectivity Index” value in the data set on WI38 normal cell line turned out to be 0.30.
